Laboratory results published in US9446007B2, “Methods for maintaining or improving health, well-being and/or a physiological function in a subject” (DYNAMIS THERAPEUTICS, INC., priority 2012, dated 2016).

How the values were obtained:
[1] = test system: 3-Deoxyglucosone (3DG); test: Mice study: urine 3-deoxyglucosone (3DG) levels, GC-MS; assay type: in vivo, C57BL/6 male mice; details: 10, 40 or 75 mM in drinking water; age 103 weeks; vs control animals
Protocol: (§1) A group of sixteen C57BL/6 male mice at 12 weeks of age were distributed into 4 groups (n=4 each). Animals were fed a normal diet supplemented with 0 mM, 10 mM, 40 mM, or 75 mM meglumine in the drinking water. The approximate doses of meglumine were 537 mg/kg/day, 2,146 mg/kg/day, and 4,027 mg/kg/day for animals treated with, respectfully, 10 mM, 40 mM and 75 mM meglumine.
Urine was collected from animals (n=3 for all groups, except n=4 for 75 mM meglumine) at the age of 103 weeks and 3DG levels were measured using GC-MS with an internal U-[^13C]-3DG standard (FIG. 2). Prior to analysis, urine samples were treated with 2,3-diaminonapthalene overnight to derivatize 3DG, and then extracted with ethyl acetate. Urinary creatinine levels were measured with a reagent kit from Oxford Biochemicals. The 3DG/creatinine ratio (±standard deviation) is illustrated in FIG. 2.

[2] = test system: C57BL/6 male mice; test: Mice study: longevity; assay type: in vivo; details: for average lifespan (±standard deviation): control 771±214.6
Protocol: as §1
Animals were observed daily, and date of death was noted if applicable. Four animals were found dead in their cages, and twelve were euthanized after showing symptoms of distress (hunched posture, weight loss, decreased food intake).
The average lifespan (±standard deviation) for the mice treated with 0 mM, 10 mM, 40 mM and 75 mM meglumine was 771±214.6 days, 834±124 days, 927±80.3 days and 1,027±117.5 days. Animals treated with 10 mM, 40 mM and 75 mM lived, respectively, 8.2%, 20.2%, and 33.2% longer than the control animals.

[3] = test system: advanced glycation end products (AGE products); test: Rat study: advanced glycation end product in skin (fluorescence ratio); assay type: in vivo, Sprague-Dawley rat; details: 32 weeks; for Mean AGE/Total Protein in skin: water 0.594 ± 0.173; for decrease of AGE product in the skin vs untreated rats: not statistically significant
Protocol: At the end of 32 weeks the ratio of advanced glycation end products (AGE products) to total protein was determined in the skin using the ratio of fluorescence measurements. A 3 cm^2 biopsy was taken from the shaved dorsal surface of the rats. The dermis was separated from the epidermis via immersion in water at 55° C. for 30 seconds, followed by gentle scraping of epidermis. The dermis was placed onto a wire screen cut to fit diagonally into fluorescence spectrometer. Fluorescence was recorded on PE 650-40 fluorescence spectrometer using front surface (“diagonal”) geometry. Fluorescence intensities were monitored at excitation/emission wavelengths of 270/300 nm, 270/330 nm, 270/360 nm, 270/400 nm, 325/400 nm, 270/450 nm and 370/450 nm. For direct comparison at the same excitation wavelength, ratios of I(270/330 nm) to I(270/450 nm) were recorded. These ratios were corrected for different instrumental responses at 330 and 450 nm.

[4] = test system: 3DG; test: Rat study: urinary 3DG levels, GC-MS; assay type: in vivo, Sprague-Dawley rat; details: 50 mM, 32 weeks
Protocol: The level of 3DG was measured in the urine of the rats at 32 weeks. 3DG levels were measured by GC-MS by reacting 0.1 ml of sample, to which 20 picomoles of [U-^13C] labeled 3DG had been added as an internal standard, with 1 ml of 1 mM 2,3-diaminonaphthalene (DAN) for 24 hours at room temperature. Following reaction with DAN, the sample was extracted with four volumes of ethyl acetate and then dried. The residue was dissolved in 50 μl of N-methyl-N-(trimethylsilyl)trifluoroacetamide and heated at 65° C. for 30 min. 2 μl was analyzed by GC-MS. Levels of 3DG were normalized to creatinine levels measured with reagents from Oxford Biochemicals.

[5] = test system: isoprostane; test: Rat study: urinary isoprostane levels, competitive ELISA; assay type: in vivo, Sprague-Dawley rat; details: 50 mM, 32 weeks
Protocol: […] Rat urine from 32 weeks was measured for the presence of isoprostane, a marker for oxidative stress using a competitive ELISA (Oxford Biochemicals, Oxford Mich.). All values were normalized to creatinine levels to control for differences in urine volume. Creatinine was measured using a kit from Oxford Biochemicals.

[6] = test system: imidazolone; test: Rat study: 3DG adduct (imidazolone) levels in skin, fluorescent immunohistochemistry; assay type: in vivo, Sprague-Dawley rat; details: 50 mM, 32 weeks
Protocol: Eighteen male Sprague-Dawley rat (ACE) weighing 150-175 g were divided into 3 groups (n=6) and fed a normal diet supplemented with 0 mM, 25 mM, or 75 mM meglumine in the drinking water for 32 weeks. The presence of imidazolone, a 3DG-derived adduct formed from the reaction of 3DG and arginine was measured by fluorescent immunohistochemistry, using a monoclonal antibody to imidazolone, AG-1 (T. Niwa). A piece of skin from each rat on water and 50 mM meglumine was fixed in formalin, and thin sections were treated with AG-1 antibody and then a fluorescent second antibody, and each slide was scanned using a fluorescence microscope. The total florescence due to imidazolone over each slide was measured.

[7] = test system: imidazolone; test: Rat study: 3DG adduct (imidazolone) levels in kidney tubules and glomeruli; assay type: in vivo, Sprague-Dawley rat; details: 50 mM, 32 weeks
Protocol: Eighteen male Sprague-Dawley rat (ACE) weighing 150-175 g were divided into 3 groups (n=6) and fed a normal diet supplemented with 0 mM, 25 mM, or 75 mM meglumine in the drinking water for 32 weeks. The 3DG adduct imidazolone was measured in kidney tubules and glomeruli by fluorescent immunohistochemistry using a monoclonal antibody to imidazolone, AG-1 (T. Niwa). Kidneys from each rat on water or 50 mM meglumine were placed in formalin, and thin sections were prepared. Each slide was treated with AG-1 and then a fluorescent second antibody, and then scanned using a fluorescence microscope. The total florescence due to imidazolone over each structure measured.

[8] = test system: blood glucose; test: Glucose tolerance test; assay type: in vivo, KK.Cg-A^y/+/J yellow mice; details: mutant yellow mice; 18 mM meglumine hydrochloride in water for 16 weeks; 15, 30, 60 and 120 min; vs water
Protocol: Mutant KK.Cg-A^y/+/J “yellow mice” (which are prone to developing diabetes and obesity) and control KK.Cg-A^+/+/J “black mice” were fed with water or water supplemented with 18 mM meglumine hydrochloride for 16 weeks. As a comparison group, SV129 normoglycemic mice were fed with water. The animals were then fasted overnight and blood glucose measured (time 0 min). The animals were injected with glucose, and blood glucose levels measured after 15 min, 30 min, 60 min and 120 min. The results are illustrated in FIG. 8.

[9] = test system: SV129 mice; test: Strength testing in mice (inverted metal grid); assay type: in vivo; details: 18 mM meglumine hydrochloride in drinking water, 6 weeks; n=15; control 6.3±3.4; p=0.0006
From the text: The grip strength test is a widely-used non-invasive method designed to evaluate mouse limb strength that has been used to investigate the effects of neuromuscular disorders and compound under testing. It is based on the natural tendency of the mouse to grasp a bar or grid when it is suspended by the tail. During this test the mouse grips with both forelimbs (or hind-limbs) a single bar or a mesh. There are three kinds of grip strength tests used: Mesh Grip Test, Wire Grip Test, and Automatic Grip Strength (GS Meter). The Mesh Grip Test measures the ability of the mouse to remain clinging to an inverted or tilted surface such as a wire grid or a cage lid for a period of time, usually up to 1 minute; the Wire Grip Test measures the ability of the mouse to hang on a wire with its forepaws for a preset length of time or until grip fails, while in the Automatic Grip Strength the mouse grasps a horizontal metal bar or grid while is pulled by the tail. The bar or grid is attached to a force transducer that peak pull-force achieved on its digital display. A group of SV129 mice (n=15) and a group of mice treated with 18 mM meglumine hydrochloride in their drinking water (n=15) for 6 weeks were tested for the ability to hold on to an inverted metal grid. The length of time before falling off the grid was averaged, and the standard error was calculated.

SMILES: CNC[C@H](O)[C@@H](O)[C@H](O)[C@H](O)CO [meglumine, (2R,3R,4R,5S)-6-methylaminohexane-1,2,3,4,5-pentol]
- urine 3DG/creatinine ratio [1]: less than the control animals
- lived longer than the control animals ([2]; 10 mM in drinking water): 8.2%
- average lifespan (±standard deviation) ([2]; 10 mM in drinking water (537 mg/kg/day)): 834 ± 124 days
- lived longer than the control animals ([2]; 40 mM in drinking water): 20.2%
- average lifespan (±standard deviation) ([2]; 40 mM in drinking water (2,146 mg/kg/day)): 927 ± 80.3 days
- lived longer than the control animals ([2]; 75 mM in drinking water): 33.2%
- average lifespan (±standard deviation) ([2]; 75 mM in drinking water (4,027 mg/kg/day)): 1,027±117.5 days
- Mean AGE/Total Protein in skin ([3]; 25 mM in drinking water): 0.486 ± 0.187
- decrease of AGE product in the skin vs untreated rats ([3]; 25 mM): 10%
- Mean AGE/Total Protein in skin ([3]; 50 mM in drinking water): 0.235 ± 0.067
- decrease of AGE product in the skin vs untreated rats ([3]; 50 mM): 60%
- urinary 3DG levels lower than in rats on water [4]: 33%
- urinary 3DG ([4]; water 0.0891 ± 0.007): 0.0598 ± 0.004 µM
- urinary isoprostane levels lower than in rats on water ([5]; not statistically significant): 22%
- urinary Isoprostane ([5]; water 2.65 ± 0.236): 2.05 ± 0.283 ng/mL
- less imidazolone in skin than rats on water ([6]; not statistically significant): 25%
- Fluorescence (imidazolone) in skin ([6]; water 790567 ± 83833): 593320 ± 87404
- less imidazolone in glomeruli than rats on water ([7]; not statistically significant): 24%
- less imidazolone in tubules than rats on water ([7]; not statistically significant): 13%
- Fluorescence in Tubules (imidazolone) ([7]; water 47,081,228 ± 6,407,142): 40,158,431 ± 3,644,819
- Fluorescence in Glomeruli (imidazolone) ([7]; water 85,039,251 ± 13,401,970): 64,376,501 ± 7,548,981
- blood glucose levels after glucose injection [8]: decreased blood glucose levels
- length of time that the animals could hold on to the grid [9]: 17.8 ± 0.6 s
